Columns and labels:
RAD52-ssDNA interaction = target: T1, RAD52-ssDNA interaction (Homo sapiens, UniProt P43351); test: FRET-based ssDNA binding and wrapping assay (RAD52-Cy3-dT30-Cy5 complex); conditions: 1 nM Cy3-dT30-Cy5, 8 nM RAD52, 25°C; read-out: IC50 (DNA binding), ssDNA
T1 construct: made in house
T1 sequence (P43351 1-418): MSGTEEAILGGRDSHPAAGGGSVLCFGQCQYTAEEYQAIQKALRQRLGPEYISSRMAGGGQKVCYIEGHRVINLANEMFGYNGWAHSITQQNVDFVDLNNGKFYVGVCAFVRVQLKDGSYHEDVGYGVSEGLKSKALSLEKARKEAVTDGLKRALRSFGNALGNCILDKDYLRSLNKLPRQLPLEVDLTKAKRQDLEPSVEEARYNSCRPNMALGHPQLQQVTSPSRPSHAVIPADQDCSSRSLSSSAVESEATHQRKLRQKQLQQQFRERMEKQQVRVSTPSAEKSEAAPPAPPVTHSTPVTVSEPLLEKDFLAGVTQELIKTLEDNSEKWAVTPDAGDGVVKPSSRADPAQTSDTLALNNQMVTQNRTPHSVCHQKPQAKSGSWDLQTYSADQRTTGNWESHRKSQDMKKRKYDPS
Experimental: We titrated increasing amounts of each compound into a cuvette containing preformed stoichiometric RAD52-Cy3-dT30-Cy5 complexes (1 nM Cy3-dT30-Cy5 and 8 nM RAD52). […] At each concentration of the compound, the FRET signal was adjusted for the change in Cy3 and Cy5 fluorescence in the presence of the compound, but in the absence of protein.
FRET-based ssDNA binding, dsDNA binding, and annealing assays were carried out as previously described ([Grimme et al., 2010]; [Grimme and Spies, 2011]) using Cary Eclipse spectrofluorimeter (Varian) at 25°C in buffer containing 30 mM Tris-Acetate pH7.5, 1 mM DTT, and 0.1 mg/mL BSA. Cy3 dye was excited at 530 nm and its emission was monitored at 565 nm. Emission of Cy5 acceptor fluorophore excited through the energy transfer from Cy3 donor is monitored at 660 nm simultaneously with emission of Cy3 dye. Both the excitation and the emission slit widths were set to 10 nm.
All experiments were performed in triplicates, and the data are shown as averages and standard deviations for three independent measurements. To remove possible experimental artifacts associated with chromogenic or fluorogenic compounds, as well as with the compounds that may quench or enhance Cy3 or Cy5 fluorescence, we also performed control titrations whereby we titrated each compound into 1 nM Cy3-dT30-Cy5 in the absence of RAD52. For each compound concentration we subtracted the difference in the FRET signal in the presence and absence of the compound from the respective FRET signal in the presence of RAD52. The FRET signal corrected for the compound fluorescence was calculated using the equation: FRETapp=4.2∗ICy5/4.2∗ICy5+ 1.7∗ICy3
as previously described ([Grimme et al., 2010]; [Grimme and Spies, 2011]) and plotted as a function of compound concentration and fitted to the following inhibition model” FRET([small molecule])=FRET0−FRETmin/1+10^(LogIC50−Log([small molecule])∗HillSlope),
where FRET0 is the initial FRET value of the RAD52-ssDNA complex in the absence of the compound and FRETmin is the FRET value at complete inhibition. FRET values were calculated as an average of three or more independent annealing reactions plotted against the concentration of the compound. Inhibition of the RAD52-dsDNA interaction was assayed in a similar experiments, except the stoichiometric complexes containing 1 nM molecules of Cy3-Oligo28-Cy5 duplex DNA and 10 nM RAD52.

RPA-ssDNA interaction = target: T2, RPA-ssDNA interaction (Homo sapiens, UniProt P15927+P27694+P35244); test: FRET titration of the RPA-Cy3-dT30-Cy5 complex; assay type: binding; conditions: range of tested concentrations
T2 construct: made in house
T2 sequence (P27694 whole entry): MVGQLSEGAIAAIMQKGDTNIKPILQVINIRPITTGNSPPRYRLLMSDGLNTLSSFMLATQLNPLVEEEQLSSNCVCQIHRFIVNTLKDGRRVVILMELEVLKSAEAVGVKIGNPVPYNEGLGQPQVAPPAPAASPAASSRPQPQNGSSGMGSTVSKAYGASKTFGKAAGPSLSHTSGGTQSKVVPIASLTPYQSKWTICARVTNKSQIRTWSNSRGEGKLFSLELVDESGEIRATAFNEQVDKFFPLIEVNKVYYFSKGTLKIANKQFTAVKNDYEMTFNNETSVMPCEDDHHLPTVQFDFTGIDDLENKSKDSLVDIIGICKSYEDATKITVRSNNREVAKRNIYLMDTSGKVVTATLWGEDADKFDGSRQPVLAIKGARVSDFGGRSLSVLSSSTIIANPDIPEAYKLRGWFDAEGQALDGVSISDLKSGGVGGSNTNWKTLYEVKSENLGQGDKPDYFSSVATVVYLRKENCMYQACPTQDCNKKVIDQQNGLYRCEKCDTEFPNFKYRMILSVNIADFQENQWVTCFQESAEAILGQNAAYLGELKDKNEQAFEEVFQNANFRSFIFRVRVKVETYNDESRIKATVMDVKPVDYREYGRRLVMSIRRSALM
T2 sequence (P15927 whole entry): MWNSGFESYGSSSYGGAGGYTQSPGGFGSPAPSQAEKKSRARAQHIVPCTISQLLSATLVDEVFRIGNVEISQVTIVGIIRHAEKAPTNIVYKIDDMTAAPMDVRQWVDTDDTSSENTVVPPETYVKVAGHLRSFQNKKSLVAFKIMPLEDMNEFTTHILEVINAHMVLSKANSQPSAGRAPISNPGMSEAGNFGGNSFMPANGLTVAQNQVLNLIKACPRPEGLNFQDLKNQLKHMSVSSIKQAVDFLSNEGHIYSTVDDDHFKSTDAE
T2 sequence (P35244 whole entry): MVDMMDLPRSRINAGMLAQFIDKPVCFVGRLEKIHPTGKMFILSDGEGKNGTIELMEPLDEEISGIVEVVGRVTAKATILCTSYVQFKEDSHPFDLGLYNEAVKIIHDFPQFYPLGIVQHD
Source text: In the cell, ssDNA is typically found in complex with Replication protein A (RPA), the major eukaryotic ssDNA-binding protein essential for DNA replication, repair and recombination ([Wold, 1997]; [Oakley and Patrick, 2010]; [Chen and Wold, 2014]). The RPA-ssDNA complex is a physiologically relevant substrate for the RAD52-mediated strand annealing. […] RPA binds ssDNA with high affinity and extends the ssDNA to its contour length. In our assays such an extension manifests as a distinct FRET state of ~0.3, which is readily distinguished from a FRET state of ~0.48 of free Cy3-dT30-Cy5 ssDNA, as well as ~0.63 FRET of the stoichiometric ssDNA-RPA-RAD52 complex (see Figure 2—figure supplement 1 and ([Grimme and Spies, 2011]) for details). […] Both, however, inhibited the RAD52 binding to and wrapping of RPA-coated ssDNA with IC50 values identical to those determined without RPA (Figure 2e and Figure 3e).
(§1) In all experiments, the FRET values for each data point were corrected for the effects of the compounds on the respective substrate in the absence of RAD52.

[1] = target: T3, RAD52-RPA-Cy3-dT30-Cy5 complex (Homo sapiens, UniProt P43351); test: FRET-based RAD52 binding/wrapping of RPA-coated ssDNA
T3 construct: made in house
T3 sequence (P27694 whole entry partner, one chain of several): as the sequence (P27694 whole entry) above
T3 sequence (P15927 whole entry partner, one chain of several): as the sequence (P15927 whole entry) above
T3 sequence (P35244 whole entry partner, one chain of several): as the sequence (P35244 whole entry) above
Source text: The RPA-ssDNA complex is a physiologically relevant substrate for the RAD52-mediated strand annealing. […] RPA binds ssDNA with high affinity and extends the ssDNA to its contour length.
as §1

RAD52 = target: T4, RAD52 (Homo sapiens, UniProt P43351); test: WaterLOGSY NMR binding to RAD52; conditions: 20-40 μM compound, 3.3 μM RAD52
T4 construct: made in house
T4 sequence (P43351 1-418): T1 sequence (P43351 1-418)
Source text: (§2) To confirm that the selected compounds bind RAD52, we employed water-ligand observation with gradient spectroscopy (WaterLOGSY), an NMR technique, which is based on transfer of magnetization from bulk water to the protein-bound compound of interest ([Dalvit et al., 2001], [2000]). In WaterLOGSY spectrum, if a compound binds to a protein, the compound will receive negative nuclear Overhauser effects (NOEs) due to the slow tumbling of the protein-compound complex, leading to a positive WaterLOGSY peak. […] Similarly, the binding of ‘6’to RAD52 is evident from the positive WaterLOGSY peaks that are clearly detected for this compound (Figure 3a).
(§3) Compound binding to RAD52 and RPA proteins was analyzed using water-ligand observation with gradient spectroscopy (WaterLOGSY) NMR experiments ([Dalvit et al., 2001], [2000]). The WaterLOGSY spectra of compounds in the presence of RAD52 or RPA were acquired using a water NOE mixing time of 1 s and a T2 relaxation filter of 50 ms just before data acquisition to suppress the broad signals derived from protein. The protein buffer used in the experiments contains 10 mM Tris-d11, 75 mM KCl, 0.25 mM EDTA, pH 7.5, and 10% D20. All NMR data were acquired on a Bruker Avance II 800 MHz NMR spectrometer equipped with a sensitive cryoprobe and recorded at 25°C. The ^1H chemical shifts were referenced to 2,2-dimethyl-2-silapentane-5-sulfonate (DSS). NMR spectra were processed using NMR Pipe ([Delaglio et al., 1995]) and analysed using NMR View ([Johnson and Blevins, 1994]).

RAD52-dsDNA interaction = target: T5, RAD52-dsDNA interaction (Homo sapiens, UniProt P43351); test: FRET-based RAD52-dsDNA binding assay; conditions: 1 nM dsDNA, 10 nM RAD52
T5 construct: made in house
T5 sequence (P43351 1-418): T1 sequence (P43351 1-418)

RPA = target: T6, RPA (Homo sapiens, UniProt P15927+P27694+P35244); test: WaterLOGSY NMR binding to RPA; conditions: 20-40 μM compound, 3.3 μM RPA
T6 construct: made in house
T6 sequence (P27694 whole entry): as the sequence (P27694 whole entry) above
T6 sequence (P15927 whole entry): as the sequence (P15927 whole entry) above
T6 sequence (P35244 whole entry): as the sequence (P35244 whole entry) above
Source text: as §2, §3

## O=C(O[C@@H]1O[C@@H]2COC(=O)c3cc(O)c(O)c(O)c3-c3c(cc(O)c(O)c3O)C(=O)O[C@H]([C@H]1O)[C@@H]2O)c1cc(O)c(O)c(O)c1 [NP-004255, corilagin]
RAD52-ssDNA interaction
  IC50: 1.5 ± 0.2 µM
RPA-ssDNA interaction
  effect on the RPA-ssDNA interaction: did not affect the RPA-ssDNA complex
[1]
  IC50: 0.5 ± 0.1 µM
RAD52
  binding to RAD52 (WaterLOGSY): physically interacts with RAD52
RAD52-dsDNA interaction
  effect on the RAD52-dsDNA interaction: had no effect on the RAD52-dsDNA interaction
RPA
  binding to RPA (WaterLOGSY): also bound RPA

Source: article PMC4982760, “Small-molecule inhibitors identify the RAD52-ssDNA interaction as critical for recovery from replication stress and for survival of BRCA2 deficient cells” (eLife, 2016)
